What was measured:
Solubility in water = assay type: physicochemical; settings: hydrochloride
[1] = test system: sensitive strains of P. falciparum; test: IC50 vis-à-vis sensitive strains of P. falciparum; assay type: cell-based; settings: Plasmodium falciparum
[2] = test system: resistant (W2) strains of P. falciparum; test: IC50 vis-à-vis resistant (W2) strains of P. falciparum; assay type: cell-based; settings: Plasmodium falciparum
Plasmodium berghei = test: Peters test on mice infected by Plasmodium berghei; assay type: in vivo; settings: after 20 days; daily dose of 50 mg/Kg for 4 days

Structure (SMILES) | solubility (Solubility in water) [mg/mL] | IC50 [1] [µM] | IC50 [2] [µM] | survival of mice in the Peters test (Plasmodium berghei)
C[C@@H]1CC[C@H]2C(CN3CCOCC3)=C(C(F)(F)F)O[C@@H]3OC4(C)CC[C@@H]1[C@]32OO4 | > 20 | – | – | –
C[C@@H]1CC[C@H]2C(CN3CCN(CCO)CC3)=C(C(F)(F)F)O[C@@H]3OC4(C)CC[C@@H]1[C@]32OO4 | – | 0.017 | 0.003 | all the mice survive
C[C@@H]1CC[C@H]2C(CN3CCN(CCO)CC3)=C(C(F)(F)F)O[C@@H]3OC4(C)CC[C@@H]1[C@]32OO4 [drawing 28] | > 50 | – | – | –

Reference: US7696362B2, “Derivatives of artemisinin, and their uses in the treatment of malaria” (Centre National de la Recherche Scientifique, priority 2001, dated 2010)
